Measurements as given in paper PMC5035034, “Carbohydrate-Binding Non-Peptidic Pradimicins for the Treatment of Acute Sleeping Sickness in Murine Models” (PLoS Pathogens, 2016).

Molecular target: T1, VSG221 (variant surface glycoprotein 221, MITat 1.2) (Trypanosoma brucei, UniProt P26332)
T1 construct: soluble form VSG (sVSG) purified from parental bloodstream forms, N-glycosylated (Asn263, Asn428)
Assay: SPR (Biacore T200) on immobilized VSG221, […]
Type: binding

CN[C@@H]1[C@H](O[C@@H]2OC[C@@H](O)[C@H](O)[C@H]2O)[C@@H](O)[C@H](O[C@H]2c3cc(C)c(C(=O)N[C@H](C)C(=O)O)c(O)c3-c3c(cc4c(c3O)C(=O)c3cc(OC)cc(O)c3C4=O)[C@@H]2O)O[C@@H]1C [PRM-A, pradimicin A]
SPR (Biacore T200) on immobilized VSG221, 1.56 to 50 uM: using the high-density parental Tb BSF VSG221 sensorchip, concentration-dependent binding of PRM-A could be observed
